# Measurements taken from PubChem BioAssay AID179 (DTP/NCI, 2004).
# Several values for one entry are separate records, joined by “and”; a condition that tells them apart may be missing. Equal values may be shown once. Activity calls are given as the source filed them.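 Rule for the calls: active = compounds giving half or more protection of infected cells from virus-caused growth loss, again on retest; inactive = the rest.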
# System: CEM cells HIV-1 protection, formazan growth assay
# Experiment: NCI AIDS Antiviral Assay
# Conditions: for IC50: measured here: growth of uninfected CEM cells
# How it was run: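 Protection of CEM cells against HIV-1 was scored from cell growth (soluble formazan) across five concentrations, with parallel uninfected cells. Lack of protection may reflect toxicity.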
Compound,EC50,IC50,outcome
CC1CCC2(OC2(C)C)C(=O)C1 (stereo unspecified),> 200 µM,> 200 µM,–
c1ccc([P+](CCCCCCCCCC[P+](c2ccccc2)(c2ccccc2)c2ccccc2)(c2ccccc2)c2ccccc2)cc1,> 200 µM,0.589 µM,–
O=c1[nH]c(Br)nc2n[nH]nc12,> 200 µM,4.9 µM,–
COc1ccc(N2C(=O)C3c4[nH]c5ccc(Br)cc5c4C4CCC(C(C)(C)C)CC4C3C2=O)cc1 (stereo unspecified),–,–,inactive
COc1ccc(OC)c(CSc2ccc(OC)c(OC)c2)c1,> 200 µM,85.1 µM,–
O=C1c2ccccc2CC12Cc1ccccc1C2,> 200 µM,69.2 µM,–
Cc1[nH]c(=O)[nH]c(=O)c1CCSSCCc1c(C)[nH]c(=O)[nH]c1=O,> 200 µM,> 200 µM,–
COc1ccc(C2SC(=S)N(c3ccc(Cl)cc3)N2c2ccc(Cl)cc2)cc1 (stereo unspecified),> 200 µM,24 µM,–
CCOC(=O)c1c(C)[nH]c(=S)c(C#N)c1-c1cccc2ccccc12,> 200 µM,28.8 µM,–
CN(C)C1CS(=O)(=O)OC2=C1CCc1sccc12 (stereo unspecified),> 25.1 µM,> 25.1 µM,–
N#CC1C2C1C1C=CC2n2c(=O)n(-c3ccccc3)c(=O)n21 (stereo unspecified),> 200 µM,> 200 µM,–
CC/C=N\N1C(N)=C(C#N)C(C#N)(C#N)C1CC (stereo unspecified),> 200 µM,64.6 µM,–
CCN(CC)CCCC(C)Nc1ccnc2cc(Cl)ccc12 (stereo unspecified),–,–,inactive
CNS(=O)(=O)NN(C)S(=O)(=O)c1ccc2ccccc2c1,> 759 µM,110 µM,–
CC(C)=CCC/C(C)=C\C=N/O,> 155 µM,8.13 µM,–
CC(CCC(C)OS(=O)(=O)c1ccc(F)cc1)OS(=O)(=O)c1ccc(F)cc1 (stereo unspecified),–,–,inactive
COc1ccc(C(=O)c2ccc(OC)c(S(=O)(=O)n3ccnc3)c2)cc1S(=O)(=O)n1ccnc1,> 35.5 µM,32.4 µM,–
COC(=O)c1cc(C(=CCN[C@H]2CC[C@@]3(C)[C@@H](CC[C@@H]4[C@@H]3CC[C@]3(C)[C@@H]([C@H](C)CCCC(C)C)CC[C@@H]43)C2)c2cc(Cl)c(OC)c(C(=O)OC)c2)cc(Cl)c1OC,> 100 µM,> 100 µM,–
COc1ccccc1NC(=O)C1=C(C)NC(C)=C(C(=O)Nc2ccccc2OC)C1c1ccccc1F,–,–,inactive
COc1ccc(C(=O)[O][Sn]([c]2ccccc2)([c]2ccccc2)[c]2ccccc2)c(OC)c1OC,> 2 µM,0.11 µM,–
O=NN1CN2CN(C1)CN(N=O)C2,> 200 µM,30.9 µM,–
C/C(=N\N=C(N)N)c1ccccc1,–,–,inactive

Compound,EC50,IC50,outcome
O=C(O)CSc1cc(-c2ccc(Cl)cc2)s[s+]1,> 200 µM,> 200 µM,–
Cn1c(=O)c2c(nc3n2CCC(=O)N3CCCCl)n(C)c1=O,> 200 µM,166 µM,–
O=[N+]([O-])c1cc(-c2ccccc2)c([O][Sn]([c]2ccccc2)([c]2ccccc2)[c]2ccccc2)c([N+](=O)[O-])c1,> 200 µM,3.8 µM,–
O=S(=O)(O)SCc1ccccc1CSS(=O)(=O)O,> 200 µM,> 200 µM,–
Cn1cnc2ccccc2c1=S,> 200 µM,182 µM,–
CCCCCC=C(c1cc(C(=O)OC)c(OC)c(C(F)(F)F)c1)c1cc(C(=O)OC)c(OC)c(C(F)(F)F)c1,> 200 µM,105 µM,–
CNC(=O)N(C)COC,> 759 µM,115 µM,–
O=S(=O)(c1ccccc1)c1ccccn1,75.9 µM,407 µM,–
CCOC(=O)CCc1c(C)c2c(OC)cc(OC)cc2oc1=O,–,–,inactive
Cc1cc(=O)[nH]c(=S)n1-c1nc2ccccc2o1,> 115 µM,> 115 µM,–
C[N+]1(Cc2ccco2)CCCCC1,> 813 µM,> 813 µM,–
CN(C)c1ccc(C=Nc2ccc(/C=C3\C=Cc4ccccc43)cc2)cc1,> 20.4 µM,> 20.4 µM,–
N=C(N)SCc1ccc(N=C=S)cc1,> 200 µM,83.2 µM,–
NC(=O)c1ccccc1NC(=O)C(=O)C(c1cnc2ccc([N+](=O)[O-])cc2n1)[N+](=O)[O-] (stereo unspecified),> 61.7 µM,> 61.7 µM,–
Cc1ccc(C(=O)CC2=Nc3nnc(CCCCCCCc4nnc5n4C(=O)C(CC(=O)c4ccc(C)cc4)=N5)n3C2=O)cc1,> 2.4 µM,> 2.4 µM,–
O=c1cc2ccccc2nn1Cc1ccccc1,> 21.9 µM,> 21.9 µM,–
CCOC(=O)/C(=C\c1cccc(F)c1)P(=O)(OCC)OCC,> 57.5 µM,10.2 µM,–
Cn1c(=O)cc(CNc2ccc(-c3ccccc3)cc2)c2ccccc21,> 200 µM,75.9 µM,–
O=c1ccn([C@@H]2C=C(CO)[C@@H](O)[C@H]2O)c(=O)[nH]1,> 200 µM,> 200 µM,–
CC1SC(C)SC(C(C)(C)O)S1 (stereo unspecified),> 32.4 µM,> 32.4 µM,–
O=C(NC(=O)c1ccccc1)Nc1ccccc1,> 14.1 µM,> 14.1 µM,–
CCCCCCCCC/C=C/C=C/C(=O)NCC(=O)NC1C(O)C(O)C(Nc2ncnc3nc[nH]c23)OC1C(O)CO (stereo unspecified),> 43.7 µM,0.158 µM,–

Compound,EC50,IC50,outcome
O=C1NC(O)c2cccc(Cl)c2O1 (stereo unspecified),–,–,inactive
CC(C)(C)c1cc(-c2cc(C(C)(C)C)[nH]n2)n[nH]1,> 200 µM,> 200 µM,–
CCOC(=O)C(CCN1CCC2(CC1)C(=O)N(C)CN2c1ccccc1)C(=O)OCC,> 200 µM,> 200 µM,–
CN(C)c1ccc(/C=C(\NC(=O)c2ccccc2)C(=O)Nc2ccccc2C(=O)NN2C(=O)CSC2c2ccc(N(C)C)cc2)cc1 (stereo unspecified),> 50.1 µM,> 50.1 µM,–
O=[N+]([O-])c1cccc(C=NC23CC4CC(CC(C4)C2)C3)c1,> 66.1 µM,> 66.1 µM,–
C[C@]12CC[C@@H]3c4ccc(OC(=O)c5ccccc5)cc4CC[C@H]3[C@@H]1CCC2OC(=O)c1cccc2c(=O)c3ccccc3[nH]c12 (stereo partly specified),> 151 µM,7.94 µM,–
CCOP(=O)(OCC)/C(C#N)=C/c1ccccc1Cl,–,–,inactive
CC(=O)O[C@@H]1[C@H](OC2CCCCC2(c2ccccc2)c2ccccc2)O[N+]([O-])=CC12CCCCC2 (stereo partly specified),> 200 µM,2.69 µM,–
CC(=O)OCC1OC(SC2=N/C(=C\c3ccc(Br)s3)C(=O)N2c2ccccc2)C(OC(C)=O)C(OC(C)=O)C1OC(C)=O (stereo unspecified),> 200 µM,123 µM and 33.9 µM,–
C=CCC1(C(=O)OC(C)(C)C)C(OC)=C(C(=O)OC(C)(C)C)C2C1C(C(=O)OC(C)(C)C)=C(OC)C2(CC=C)C(=O)OC(C)(C)C (stereo unspecified),–,–,inactive
COc1ccc(-n2cccc2)cc1,> 200 µM,> 200 µM,–
COc1cc2c(cc1OC)C(Cc1ccc(Oc3cc(CC4c5cc(OC)c(OC)cc5CCN4C)ccc3O)cc1)N(C)CC2 (stereo unspecified),–,–,inactive
CC(=O)OCSc1ncnc2c1ncn2CN1CCOCC1,> 776 µM,0.575 µM,–
CCOC(=O)CN1C(=O)NC(C)(c2ccccc2)C1=O (stereo unspecified),> 200 µM,> 200 µM,–
C=CCOC(=O)Cn1cc(C)c(=O)[nH]c1=O,> 200 µM,> 200 µM,–
COC(=O)C1(Cc2ccc3c(c2)CCC3)Cc2ccc3c(c2C1=O)CCC3 (stereo unspecified),> 20 µM,9.55 µM,–
C=C(C)OCOCCOC,> 200 µM,> 200 µM,–
O=C(SC1=NCCN1)c1cccc2ccccc12,> 200 µM,28.8 µM,–
O=c1c2ncn(COCCCl)c2n(-c2ccccc2)c(=S)n1-c1ccccc1,–,–,inactive
NS(=O)(=O)c1nnc(NC(=O)C23CC4CC(CC(C4)C2)C3)s1,> 200 µM,81.3 µM,–
CCOC(=O)c1ncn2c1[nH]c(=S)c1ccccc12,> 26.3 µM,> 26.3 µM,–
CCCNCc1c2c(O)c3c(O)c(C)c4c(c3c1O)C(=O)C(C)(O/C=C/C(OC)C(C)C(OC(C)=O)C(C)C(O)C(C)C(O)C(C)/C=C/C=C(/C)C(=O)N2)O4 (stereo unspecified),> 200 µM,3.8 µM,–

Compound,EC50,IC50,outcome
CCOC(=O)c1cc(Br)c(-c2onc(C)c2Br)[nH]1,> 200 µM,> 200 µM,–
CC(C)(C)C(=O)OCC1OC(N=[N+]=[N-])C(OC(=O)C(C)(C)C)C(OC(=O)C(C)(C)C)C1OC(=O)C(C)(C)C (stereo unspecified),> 200 µM,> 200 µM,–
O=[N+]([O-])c1cc(Cl)ccc1S(=O)(=O)N1CCCc2cc(Cl)ccc21,> 200 µM,30.2 µM,–
O=c1c(SCc2ccc(Cl)cc2Cl)c(SCc2ccc(Cl)cc2Cl)cnn1-c1ccccc1,> 46.8 µM,> 46.8 µM,–
CC(C)N(C(=O)c1ccc(NCc2cc(O)ccc2O)cc1)C(C)C,> 200 µM,12.6 µM,–
O=C(c1ccccc1)c1nnn(Cc2cccc(Cl)c2)c1C(=O)c1ccccc1,> 12.9 µM,> 12.9 µM,–
O=C(O)CC1Sc2ccccc2NC1=O (stereo unspecified),> 1120 µM,> 1120 µM,–
CC1CN2CC(C)OB(O1)OC(C)C2 (stereo unspecified),–,–,inactive
COc1ccc2c(c1)CCN1CCc3ccccc3CC21 (stereo unspecified),> 200 µM,53.7 µM,–
CCCC(=O)n1[nH]c(=O)n(-c2ccc(Cl)cc2)c1=O,> 200 µM,> 200 µM,–
C/C=C(/C)C(=O)O[C@H]1C[C@@H]2[C@@H](O)c3occ(C)c3C[C@]2(C)[C@@H](C)C1,> 200 µM,10.5 µM,–
CCOC(=O)C(=O)Nc1ccccc1C,> 34.7 µM,> 34.7 µM,–
Cc1ccccc1C1CC(c2ccccc2)=NO1 (stereo unspecified),> 57.5 µM,> 57.5 µM,–
Cc1cc2c(cc1C)[n+](=O)c(C(=O)C/C(=N/NC(=O)c1ccccc1O)C(=O)Nc1ccccc1C(C)C)c(C)n2[O-],> 229 µM,75.9 µM,–
COc1ccc(-c2c(C)c(C)[nH]c(=O)c2C(=O)O)c(OCc2ccccc2)c1OC,–,–,inactive
O=C(Nc1cccc(O)c1)C(=O)C(C(=O)c1ccccc1F)C1OC(=O)c2ccccc21 (stereo unspecified),> 302 µM,24 µM,–
C=C1c2nc3ccccc3n2C=C(c2ccccc2)N1c1ccc(Cl)cc1,> 200 µM,32.4 µM,–
O=C(Nc1cccc(O)c1)C(=O)C1C(=O)NC(=S)NC1=O,> 813 µM,> 813 µM,–
Cc1ccc(NC(=S)Nc2c(C)n(C)n(-c3ccccc3)c2=O)cc1,> 200 µM,> 200 µM,–
CCOC(=O)C(=C(SC)SC)c1nn2c(=O)cc(C)nc2s1,> 200 µM,17.8 µM,–
C(=C\P(c1ccccc1)c1ccccc1)/P(/C=C/P(c1ccccc1)c1ccccc1)c1ccccc1,> 4.9 µM,> 4.9 µM,–
